What was measured:
rat [1] = settings: Subchronic inhalation toxicity, other, Whole-Body, dose end: 13 week, group: systemic
rat [2] = settings: Subchronic oral toxicity in rodents, sprague dawley, Water, dose end: 90 day, group: systemic
rat [3] = settings: Sub-acute repeat dose toxicity, sprague dawley, Oral, Gavage/Intubation, dose end: 10 day, group: systemic
rat [4] = settings: Combined chronic toxicity/carcinogenicity; fischer; Oral; Gavage/Intubation; dose end: 104 week; group: systemic; systemic / pathology microscopic / stomach / hyperplasia + systemic / pathology microscopic / clitoral gland / hyperplasia + systemic / …
rat [5] = settings: Combined chronic toxicity/carcinogenicity, fischer, Oral, Gavage/Intubation, dose end: 104 week, group: systemic
rat [6] = settings: Multigenerational reproductive toxicity study, other, Inhalation, Whole-Body, dose end: 1 generation
mouse [7] = settings: Combined chronic toxicity/carcinogenicity; b6c3f1; Oral; Gavage/Intubation; dose end: 104 week; group: systemic; systemic / pathology microscopic / stomach / hyperkeratosis + systemic / pathology microscopic / stomach / hyperplasia + systemic / …
rat [8] = settings: Subchronic inhalation toxicity, other, Whole-Body, dose end: 13 week, group: systemic; remark: listed apart in the source
mouse [9] = settings: Combined chronic toxicity/carcinogenicity, b6c3f1, Oral, Gavage/Intubation, dose end: 104 week, group: systemic
rat [10] = settings: Subchronic oral toxicity in rodents, fischer, Gavage/Intubation, dose end: 17 week, group: systemic
rat [11] = settings: Sub-acute repeat dose toxicity, other, Inhalation, Whole-Body, dose end: 4 week, group: systemic
rat [12] = settings: Subchronic oral toxicity in rodents, sprague dawley, Gavage/Intubation, dose end: 90 day, group: systemic
mouse [13] = settings: Multigenerational reproductive toxicity study, cd1, Oral, Gavage/Intubation, dose end: 2 generation
mouse [14] = settings: Subchronic oral toxicity in rodents, b6c3f1, Gavage/Intubation, dose end: 17 week, group: systemic
rat [15] = settings: Prenatal developmental toxicity study; wistar; Oral; Gavage/Intubation; dose end: 21 GD; group: developmental; systemic / in life observation / body weight / fetal weight + developmental / developmental landmark / anogenital distance (agd) / …
rat [16] = settings: Developmental neurotoxicity study, long evans, Injection, Intraperitoneal, dose end: 122 PND, group: cannot be grouped
rat [17] = settings: Developmental neurotoxicity study; long evans; Injection; Intraperitoneal; dose end: 18 PND; group: cannot be grouped; systemic / pathology gross / brain / reduced size + systemic / pathology microscopic / brain / depletion cellular
rat [18] = settings: Developmental neurotoxicity study; long evans; Injection; Intraperitoneal; dose end: 21 PND; group: cannot be grouped; systemic / in life observation / body weight / offspring (pup) weight
rat [19] = settings: Developmental neurotoxicity study, long evans, Injection, Intraperitoneal, dose end: 66 PND, group: cannot be grouped
mouse [20] = settings: Sub-acute repeat dose toxicity, b6c3f1, Oral, Gavage/Intubation, dose end: 14 day, group: systemic
mouse [21] = settings: Subchronic oral toxicity in rodents, b6c3f1, Gavage/Intubation, dose end: 13 week, group: systemic
rat [22] = settings: Subchronic oral toxicity in rodents, fischer, Gavage/Intubation, dose end: 13 week, group: systemic
[23] = systemic / hematology / platelet / platelet + systemic / in life observation / clinical signs / lacrimation
[24] = systemic / in life observation / clinical signs / lacrimation
[25] = systemic / clinical chemistry / aminopyrine-n-demethylase / aminopyrine-n-demethylase + systemic / clinical chemistry / cholesterol / …
[26] = systemic / clinical chemistry / urea nitrogen / urea nitrogen + systemic / organ weight / kidney / relative to body weight
[27] = systemic / clinical chemistry / urea nitrogen / urea nitrogen + systemic / organ weight / kidney / relative to body weight + systemic / …
[28] = systemic / pathology microscopic / clitoral gland / adenoma + systemic / pathology microscopic / clitoral gland / adenoma/carcinoma combined…
[29] = systemic / pathology microscopic / stomach / squamous cell papilloma + systemic / pathology microscopic / pancreas / hyperplasia + systemic…
[30] = group: parental, systemic / in life observation / body weight / body weight + systemic / in life observation / body weight / body weight gain
[31] = group: reproductive, reproductive / reproductive performance / mating / mating
[32] = systemic / hematology / leukocyte (wbc) count differential / leukocyte (wbc) + systemic / in life observation / body weight / body weight + …
[33] = systemic / pathology microscopic / lung / hyperplasia + systemic / pathology microscopic / spleen / hematopoietic cell proliferation + …
[34] = systemic / pathology microscopic / harderian gland / adenoma + systemic / pathology microscopic / liver / hepatocellular adenoma + systemic…
[35] = systemic / pathology microscopic / stomach / squamous cell carcinoma + systemic / pathology microscopic / stomach / squamous cell papilloma…
[36] = systemic / clinical chemistry / [other] / [other] + systemic / hematology / erythrocyte (rbc) count differential / erythrocyte (rbc) + …
[37] = systemic / in life observation / body weight / body weight + systemic / in life observation / body weight / body weight gain + systemic / in…
[38] = systemic / in life observation / body weight / body weight gain + systemic / organ weight / liver / absolute + systemic / organ weight / …
[39] = systemic / pathology microscopic / heart / inflammation + systemic / pathology microscopic / heart / necrosis
[40] = systemic / pathology microscopic / heart / inflammation + systemic / pathology microscopic / heart / necrosis + systemic / clinical …
[41] = group: offspring, systemic / in life observation / body weight / offspring (pup) weight + systemic / in life observation / water consumption / water …
[42] = group: offspring, systemic / organ weight / kidney / relative to body weight + systemic / organ weight / liver / relative to body weight
[43] = group: parental, systemic / in life observation / body weight / body weight + systemic / in life observation / water consumption / water consumption + …
[44] = group: reproductive, reproductive / reproductive performance / estrous cycle / length
[45] = group: reproductive, reproductive / reproductive performance / fertility / fertility + reproductive / reproductive performance / gestational length / gestational…
[46] = systemic / pathology microscopic / lung / regeneration + systemic / pathology microscopic / stomach / acanthosis + systemic / pathology …
[47] = systemic / in life observation / body weight / offspring (pup) weight + systemic / in life observation / clinical signs / [other] + systemic…
[48] = systemic / organ weight / brain / nos
[49] = systemic / clinical chemistry / [other] / [other] + systemic / clinical chemistry / protein / protein + systemic / in life observation / …
[50] = systemic / clinical chemistry / [other] / [other] + systemic / clinical chemistry / protein / protein + systemic / organ weight / brain / …
[51] = systemic / organ weight / stomach / nos + systemic / pathology microscopic / stomach / hyperplasia + systemic / pathology microscopic / …
[52] = systemic / pathology microscopic / stomach / hyperplasia
[53] = systemic / pathology microscopic / stomach / hyperplasia + systemic / organ weight / stomach / absolute + systemic / organ weight / stomach…

`ClCC(Cl)CCl` [1,2,3-Trichloropropane] showed an LOAEL (rat [1]; [23]) greater than 1.5 ppm, an NOAEL (rat [1]; [23]) of no less than 1.5 ppm and an LEL (rat [1]; [24]) of 0.5 ppm. It also gave an NEL (rat [1]; [24]) of less than 0.5 ppm, an LOAEL (rat [2]; [25]) greater than 50 mg/kg/day and an NEL (rat [2]; [25]) of 0.5 mg/kg/day. The NOAEL (rat [2]; [25]) was no less than 50 mg/kg/day, the LEL (rat [2]; systemic / in life observation / water consumption / water consumption + systemic / organ weight / kidney / relative to body weight + …) was 5 mg/kg/day and the LEL (rat [3]; [26]) was 0.00147 mg/kg/day. For the same compound, the NEL (rat [3]; [26]) was less than 0.00147 mg/kg/day, the LOAEL (rat [3]; [27]) was greater than 0.118 mg/kg/day and the NOAEL (rat [3]; [27]) was no less than 0.118 mg/kg/day. The LEL (rat [4]) was 3 mg/kg/day, the LOAEL (rat [4]) was 3 mg/kg/day and the NEL (rat [4]) was less than 3 mg/kg/day. For the same compound, the NOAEL (rat [4]) was less than 3 mg/kg/day, the LOAEL (rat [5]; [28]) was greater than 30 mg/kg/day and the NOAEL (rat [5]; [28]) was no less than 30 mg/kg/day. It also gave an LEL (rat [5]; [29]) of 3 mg/kg/day, an NEL (rat [5]; [29]) of less than 3 mg/kg/day and an LEL (rat [6]; [30]) of 15 ppm. The LOAEL (rat [6]; [30]) was greater than 15 ppm, the NEL (rat [6]; [30]) was 5 ppm and the NOAEL (rat [6]; [30]) was no less than 15 ppm. For the same compound, the LEL (rat [6]; [31]) was 5 ppm, the LOAEL (rat [6]; [31]) was greater than 15 ppm and the NEL (rat [6]; [31]) was less than 5 ppm. The NOAEL (rat [6]; [31]) was no less than 15 ppm, the LEL (mouse [7]) was 6 mg/kg/day and the LOAEL (mouse [7]) was 6 mg/kg/day. It also gave an NEL (mouse [7]) of less than 6 mg/kg/day, an NOAEL (mouse [7]) of less than 6 mg/kg/day and an LOAEL (rat [8]; [32]) greater than 50 ppm. It also gave an NOAEL (rat [8]; [32]) of no less than 50 ppm, an LEL (rat [8]; [33]) of 5 ppm and an NEL (rat [8]; [33]) of less than 5 ppm. For the same compound, the LOAEL (mouse [9]; [34]) was greater than 60 mg/kg/day, the NOAEL (mouse [9]; [34]) was no less than 60 mg/kg/day and the LEL (mouse [9]; [35]) was 6 mg/kg/day. The NEL (mouse [9]; [35]) was less than 6 mg/kg/day, the LEL (rat [10]; [36]) was 8 mg/kg/day and the NEL (rat [10]; [36]) was less than 8 mg/kg/day. It also gave an NOAEL (rat [10]; systemic / pathology microscopic / kidney / regeneration + systemic / clinical chemistry / [other] / [other] + systemic / clinical chemistry…) of 32 mg/kg/day, an LOAEL (rat [10]; systemic / pathology microscopic / kidney / regeneration + systemic / organ weight / kidney / absolute + systemic / in life observation / …) of 63 mg/kg/day and an LOAEL (rat [11]; [37]) greater than 900 ppm. For the same compound, the NOAEL (rat [11]; [37]) was no less than 900 ppm, the LEL (rat [11]; [38]) was 100 ppm and the NEL (rat [11]; [38]) was less than 100 ppm. For the same compound, the LEL (rat [12]; [39]) was 0.00147 mg/kg/day, the NEL (rat [12]; [39]) was less than 0.00147 mg/kg/day and the LOAEL (rat [12]; [40]) was greater than 0.059 mg/kg/day. It also gave an NOAEL (rat [12]; [40]) of no less than 0.059 mg/kg/day, an LOAEL (mouse [13]; [41]) greater than 120 mg/kg/day and an NOAEL (mouse [13]; [41]) of no less than 120 mg/kg/day. It also gave an LEL (mouse [13]; [42]) of 30 mg/kg/day, an NEL (mouse [13]; [42]) of less than 30 mg/kg/day and an LEL (mouse [13]; [43]) of 120 mg/kg/day. It also gave an LOAEL (mouse [13]; [43]) greater than 120 mg/kg/day, an NEL (mouse [13]; [43]) of 60 mg/kg/day and an NOAEL (mouse [13]; [43]) of no less than 120 mg/kg/day. The LEL (mouse [13]; [44]) was 30 mg/kg/day, the NEL (mouse [13]; [44]) was less than 30 mg/kg/day and the LOAEL (mouse [13]; [45]) was greater than 120 mg/kg/day. It also gave an NOAEL (mouse [13]; [45]) of no less than 120 mg/kg/day, an LEL (mouse [14]; systemic / organ weight / liver / absolute) of 32 mg/kg/day and an NEL (mouse [14]; systemic / organ weight / liver / absolute + systemic / in life observation / body weight / body weight gain + systemic / in life …) of 16 mg/kg/day. It also gave an LOAEL (mouse [14]; [46]) of 63 mg/kg/day and an NOAEL (mouse [14]; [46]) of 32 mg/kg/day.

`CC(C)COC(=O)c1ccccc1C(=O)OCC(C)C` [Diisobutyl phthalate] gave an LEL (rat [15]) of 600 mg/kg/day, an LOAEL (rat [15]) greater than 600 mg/kg/day and an NEL (rat [15]) of less than 600 mg/kg/day. The NOAEL (rat [15]) was no less than 600 mg/kg/day.

In the case of `[CH3][Sn+]([CH3])[CH3].[OH-]` [Trimethyltin hydroxide], the LOAEL (rat [16]; [47]) is reported as greater than 6 mg/kg/day, the NOAEL (rat [16]; [47]) is reported as no less than 6 mg/kg/day and the LEL (rat [16]; [48]) is reported as 4 mg/kg/day. It also gave an NEL (rat [16]; [48]) of less than 4 mg/kg/day, an LEL (rat [17]) of 6 mg/kg/day and an LOAEL (rat [17]) greater than 6 mg/kg/day. For the same compound, the NEL (rat [17]) was less than 6 mg/kg/day, the NOAEL (rat [17]) was no less than 6 mg/kg/day and the LEL (rat [18]) was 6 mg/kg/day. For the same compound, the LOAEL (rat [18]) was greater than 6 mg/kg/day, the NEL (rat [18]) was 5 mg/kg/day and the NOAEL (rat [18]) was no less than 6 mg/kg/day. The LOAEL (rat [19]; [49]) was greater than 6 mg/kg/day, the NOAEL (rat [19]; [49]) was no less than 6 mg/kg/day and the LEL (rat [19]; [50]) was 5 mg/kg/day. For the same compound, the NEL (rat [19]; [50]) was less than 5 mg/kg/day.

For `CC(C)(C)OOC(=O)c1ccccc1` [tert-Butyl perbenzoate], the LOAEL (mouse [20]; [51]) was greater than 1110 mg/kg/day, the NEL (mouse [20]; [51]) was 140 mg/kg/day and the NOAEL (mouse [20]; [51]) was no less than 1110 mg/kg/day. For the same compound, the LEL (mouse [20]; systemic / pathology microscopic / stomach / hyperplasia + systemic / organ weight / stomach / nos) was 278 mg/kg/day, the LEL (mouse [21]; [52]) was 60 mg/kg/day and the LOAEL (mouse [21]; [52]) was 60 mg/kg/day. The NEL (mouse [21]; [53]) was 30 mg/kg/day, the NOAEL (mouse [21]; [53]) was 30 mg/kg/day and the LEL (rat [22]; [52]) was 30 mg/kg/day. For the same compound, the NEL (rat [22]; [52]) was less than 30 mg/kg/day, the LOAEL (rat [22]; systemic / pathology microscopic / stomach / hyperplasia + systemic / pathology microscopic / stomach / inflammation) was 250 mg/kg/day and the NOAEL (rat [22]; systemic / pathology microscopic / stomach / hyperplasia + systemic / pathology microscopic / stomach / inflammation + systemic / in life …) was 125 mg/kg/day.

Source: EPA's ToxRefDB 2
